Drawing on US9732088B2, “C2-carbocyclic iminothiazine dioxides as BACE inhibitors, compositions, and their use” (Merck Sharp & Dohme Corp., priority 2014, dated 2017), this text covers IC50 and Ki for 15 compounds.

Some results are limits rather than exact numbers.

One experiment deals with BACE-1 (Homo sapiens (Human), UniProt P56817). Briefly: BACE-1 Cellular Assay (Aβ in HEK293-APPswe/lon cells). The class given is cell-based. Particulars: 4 hours. As for the experimental part: Assay 3: BACE-1 Cellular Assay
Certain compounds of the invention, identified in the tables herein, were determined to be potent inhibitors of BACE-1 in the following cellular assay. HEK293 cells are obtained from the American Type Culture Collection (ATCC) and stably transfected with the human amyloid precursor protein cDNA containing the FAD Swedish (enhances β-secretase processing) and London (enhances Aβ42 cleavage) mutations. A HEK293 stable clone with Aβ expression (HEK293-APP^swe/lon) is identified and maintained at 37° C., 5% CO2 in the ATCC-recommended growth media supplemented with hygromycin. […] Aβ40 or Aβ42 are measured in 15 μl of media using a mesoscale based ELISA assay. Full length Aβ40 and Aβ42 peptides are captured with the N-terminal specific biotinylated-WO2 monoclonal antibody and detected using either the ruthenylated Aβ40 C-terminal specific monoclonal antibody, G2-10 or the ruthenylated Aβ42 C-terminal specific monoclonal antibody G2-11 respectively. Raw electrochemiluminescnce values are measured using a Mesoscale Sector Imager plate reader and are plotted as a function of compound concentration. IC50 values are interpolated from the data using nonlinear regression analysis (Sigmoidal dose response fit with variable slope) of the data using GraphPad Prism software.

The target of experiment [1] is purified human autoBACE-2 (Homo sapiens (Human), UniProt Q9Y5Z0). Briefly: BACE-2 Assay (BACE-HTRF assay). Particulars: Assay 2; Ki calculated from IC50 by Cheng-Prusoff; read-out: BACE2 Ki. In kind it is biochemical. The protocol:
The compounds of the invention were determined to be potent inhibitors of BACE-2 using the following assay. Inhibitor IC50s at purified human autoBACE-2 are determined in a time-resolved endpoint proteolysis assay that measures hydrolysis of the QSY7-[…]-Eu-amide FRET peptide substrate (BACE-HTRF assay). BACE-mediated hydrolysis of this peptide results in an increase in relative fluorescence (RFU) at 620 nm after excitation with 320 nm light Inhibitor compounds, prepared at 3× the desired final concentration in 1×BACE assay buffer (20 mM sodium acetate pH 5.0, 10% glycerol, 0.1% Brij-35) supplemented with 7.5% DMSO are pre-incubated with an equal volume of autoBACE-2 enzyme diluted in 1×BACE assay buffer (final enzyme concentration 1 nM) in black 384-well NUNC plates for 30 minutes at 30° C. […] DMSO is present at […] final concentration in the assay. Following laser excitation of sample wells at 320 nm, the fluorescence signal at 620 nm is collected for 400 ms following a 50 μs delay on a RUBYstar HTRF plate reader (BMG Labtechnologies). Raw RFU data is normalized to maximum (1.0 nM BACE/DMSO) and minimum (no enzyme/DMSO) RFU values. IC50 values are determined by nonlinear regression analysis (sigmoidal dose response, variable slope) of percent inhibition data with minimum and maximum values set to 0 and 100 percent respectively. Similar IC50s are obtained when using raw RFU data. The Ki values are calculated from the IC50 using the Cheng-Prusoff equation.

The target in experiment [2] is soluble human BACE-1 catalytic domain (Homo sapiens (Human), UniProt P56817). Nature of the experiment: BACE-1 Ki Assay (BACE-1 HTRF FRET Assay). Particulars: Assay 1; Ki calculated from IC50 by Cheng-Prusoff. In kind it is biochemical. The protocol: Assay 1: BACE-1 Ki Assay (BACE-1 HTRF FRET Assay)
The compounds of the invention were determined to be potent inhibitors of BACE-1 using the following assay.
The following reagents were used in this assay. Na^+-Acetate pH 5.0; 1% Brij-35; Glycerol; Dimethyl Sulfoxide (DMSO); Recombinant human soluble BACE-1 catalytic domain (>95% pure); APP Swedish mutant peptide substrate (QSY7-APP^swe-Eu): QSY7-[…]-Europium-amide.
A homogeneous time-resolved FRET assay can be used to determine IC50 values for inhibitors of the soluble human BACE-1 catalytic domain. This assay monitors the increase of 620 nm fluorescence that resulted from BACE-1 cleavage of an APPswedish APP^swe mutant peptide FRET substrate (QSY7-[…]-Europium-amide). This substrate contains an N-terminal QSY7 moiety that serves as a quencher of the C-terminal Europium fluorophore (620 nm Em). In the absence of enzyme activity, 620 nm fluorescence is low in the assay and increased linearly over 3 hours in the presence of uninhibited BACE-1 enzyme. Inhibition of BACE-1 cleavage of the QSY7-APP^swe-Eu substrate by inhibitors is manifested as a suppression of 620 nm fluorescence.
Varying concentrations of inhibitors at 3× the final desired concentration in a volume of […] are preincubated with purified human BACE-1 catalytic domain (3 nM in 10 μl) for 30 minutes at 30° C. in reaction buffer containing 20 mM Na-Acetate pH 5.0, 10% glycerol, 0.1% Brij-35 and 7.5% DSMO. Reactions are initiated by addition of 10 μl of 600 nM QSY7-APP^swe-Eu substrate (200 nM final) to give a final reaction volume of 30 μl in a 384 well Nunc HTRF plate. The reactions are incubated at 30° C. for 1.5 hours. The 620 nm fluorescence is then read on a Rubystar HTRF plate reader (BMG Labtechnologies) using a […] delay followed by a 400 millisecond acquisition time window. Inhibitor IC50 values are derived from non-linear regression analysis of concentration response curves. Ki values are then calculated from IC50 values using the Cheng-Prusoff equation using a previously determined […] of 8 μM for the QSY7-APP^swe-Eu substrate at BACE-1. The example compounds of the invention were measured in this assay.

Experiment [3] deals with purified human Cathepsin-D (Homo sapiens (Human), UniProt P07339). Briefly: Cathepsin-D Assay (time-resolved FRET).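 Further: Europium-labelled peptide substrate with QSY7 quencher, cleavage read as 620 nm fluorescence after 30 min preincubation then 30 min reaction at 30 °C, pH 5.0, inhibition lowers signal.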 The class given is biochemical. Particulars: Assay 4; Ki calculated from IC50 by Cheng-Prusoff.
Sequence of purified human Cathepsin-D (P07339 65-412): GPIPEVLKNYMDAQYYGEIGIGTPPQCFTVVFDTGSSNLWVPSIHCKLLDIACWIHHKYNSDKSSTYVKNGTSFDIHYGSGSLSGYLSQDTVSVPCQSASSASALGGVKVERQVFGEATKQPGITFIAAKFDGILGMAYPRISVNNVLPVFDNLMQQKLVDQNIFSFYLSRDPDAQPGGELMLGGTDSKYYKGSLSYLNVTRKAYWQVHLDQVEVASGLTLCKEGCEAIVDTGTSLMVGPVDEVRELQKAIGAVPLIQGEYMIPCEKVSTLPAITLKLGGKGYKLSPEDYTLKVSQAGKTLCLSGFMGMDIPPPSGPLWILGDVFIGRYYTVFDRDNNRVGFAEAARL
Protocol: Assay 4: Cathepsin-D Assay
This substrate contains an C-terminal QSY7 moiety that serves as a quencher of the N-terminal Europium fluorophore (620 nm Em). In the absence of enzyme activity, 620 nm fluorescence is low in the assay and increased linearly over 1 hour in the presence of uninhibited Cathepsin-D enzyme. Inhibition of Cathespin D cleavage of the Eu-Aspartyl Protease-QSY7 substrate by inhibitors is manifested as a suppression of 620 nm fluorescence.
Varying concentrations of inhibitors in a volume of 100 nl are preincubated with purified human Cathepsin-D (0.1 nM in 10 μl) for 30 minutes at 30° C. in reaction buffer containing 100 mM Na-Acetate pH 5.0, and 0.02% Brij-35. Reactions are initiated by addition of 10 μl of 100 nM Eu-Aspartyl Protease-QSY7 substrate (50 nM final) to give a final reaction volume of 20 μl in a 384 well Nunc HTRF plate. The reactions are incubated at 30° C. for 30 minutes. The 620 nm fluorescence is then read on a Envision Multilabel plate reader (Perkin-Elmer) using a 200 microsecond delay followed by a 400 microsecond acquisition time window. Inhibitor IC50 values are derived from non-linear regression analysis of concentration response curves.

Sequence of BACE-1 (P56817 46-501): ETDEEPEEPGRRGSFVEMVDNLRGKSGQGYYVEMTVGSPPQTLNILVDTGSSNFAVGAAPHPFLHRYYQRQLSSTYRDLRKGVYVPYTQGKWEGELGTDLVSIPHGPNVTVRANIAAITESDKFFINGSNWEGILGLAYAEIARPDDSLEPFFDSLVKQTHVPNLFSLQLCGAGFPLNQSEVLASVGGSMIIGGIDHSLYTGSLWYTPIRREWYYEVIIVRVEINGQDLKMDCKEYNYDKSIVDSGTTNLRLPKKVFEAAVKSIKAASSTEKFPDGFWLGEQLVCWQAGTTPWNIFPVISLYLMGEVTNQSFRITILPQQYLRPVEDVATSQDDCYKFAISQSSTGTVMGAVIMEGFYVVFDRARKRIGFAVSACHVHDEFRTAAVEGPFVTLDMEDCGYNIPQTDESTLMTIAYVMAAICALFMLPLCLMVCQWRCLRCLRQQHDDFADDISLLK
Sequence of purified human autoBACE-2 (Q9Y5Z0 63-466): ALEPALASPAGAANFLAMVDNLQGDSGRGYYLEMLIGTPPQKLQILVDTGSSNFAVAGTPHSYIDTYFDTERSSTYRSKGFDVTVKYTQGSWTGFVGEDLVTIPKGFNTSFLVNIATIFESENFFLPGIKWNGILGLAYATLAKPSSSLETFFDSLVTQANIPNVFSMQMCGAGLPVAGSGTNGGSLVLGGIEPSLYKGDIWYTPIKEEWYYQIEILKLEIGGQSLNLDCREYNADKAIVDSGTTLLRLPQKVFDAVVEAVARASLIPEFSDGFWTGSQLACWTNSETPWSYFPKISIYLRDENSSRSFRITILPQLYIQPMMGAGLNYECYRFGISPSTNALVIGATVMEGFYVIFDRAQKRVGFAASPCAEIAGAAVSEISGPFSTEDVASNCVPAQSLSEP
Sequence of soluble human BACE-1 catalytic domain (P56817 75-416): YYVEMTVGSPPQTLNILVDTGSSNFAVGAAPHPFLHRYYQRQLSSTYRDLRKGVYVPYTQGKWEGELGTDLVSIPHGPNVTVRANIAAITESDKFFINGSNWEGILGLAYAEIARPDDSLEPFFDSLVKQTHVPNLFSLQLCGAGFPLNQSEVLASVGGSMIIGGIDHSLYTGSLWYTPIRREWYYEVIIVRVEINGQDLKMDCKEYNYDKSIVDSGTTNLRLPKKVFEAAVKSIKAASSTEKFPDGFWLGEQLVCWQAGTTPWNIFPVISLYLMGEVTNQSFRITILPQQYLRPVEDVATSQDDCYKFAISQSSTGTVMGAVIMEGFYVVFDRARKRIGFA

`C[C@@]1(c2cc(Nc3ccnc4cccnc34)ncc2F)CS(=O)(=O)[C@@](C)(C2CC2)C(N)=N1` [Example 31, (3R,6S)-3-(2-((1,5-naphthyridin-4-yl)amino)-5-fluoropyridin-4-yl)-5-amino-6-cyclopropyl-3,6-dimethyl-3,6-dihydro-2H-1,4-thiazine 1,1-dioxide]: the IC50 against BACE-1 worked out at 180 nM.
Compound `C[C@@]1(c2cc(Nc3nccc4cc(F)cnc34)ncc2F)CS(=O)(=O)[C@@](C)(C2CC2)C(N)=N1` [Example 26, (3R,6S)-5-amino-6-cyclopropyl-3-(5-fluoro-2-((3-fluoro-1,7-naphthyridin-8-yl)amino)pyridin-4-yl)-3,6-dimethyl-3,6-dihydro-2H-1,4-thiazine 1,1-dioxide] showed an IC50 at BACE-1 of 250 nM.
With `COc1cnc2c(Nc3cnc(F)c([C@]4(C)CS(=O)(=O)[C@@](CF)(C5CC5)C(N)=N4)c3)nccc2c1` [Example 12, N-{5-[(3R,6S)-6-cyclopropyl-6-(fluoromethyl)-5-imino-3-methyl-1,1-dioxidothiomorpholin-3-yl]-6-fluoropyridin-3-yl}-3-methoxy-1,7-naphthyridin-8-amine], the IC50 against BACE-1 stood at 99 nM. For the same compound, the Ki in experiment [1] is 0.0033 µM; in experiment [2], 0.0061 µM; in experiment [3], 629 nM.
For the compound `C[C@@]1(c2cc(Nc3ccnc4cc(Cl)cnc34)ncc2F)CS(=O)(=O)[C@@](C)(C2CC2)C(N)=N1` [Example 33, (3R,6S)-5-amino-3-(2-((7-chloro-1,5-naphthyridin-4-yl)amino)-5-fluoropyridin-4-yl)-6-cyclopropyl-3,6-dimethyl-3,6-dihydro-2H-1,4-thiazine 1,1-dioxide], at BACE-1, the midpoint of inhibition, the IC50, lay at 27 nM. Moreover, the Ki in experiment [1] is 0.00082 µM; in experiment [2] it was 0.0062 µM; in experiment [3] it was 820 nM.
`C[C@@]1(c2nc(Nc3nccc4cc(C#N)cnc34)ccc2F)CS(=O)(=O)[C@@](CF)(C2CC2)C(N)=N1` [Example 2, 8-({6-[(3R,6S)-6-cyclopropyl-6-(fluoromethyl)-5-imino-3-methyl-1,1-dioxidothiomoipholin-3-yl]-5-fluoropyridin-2-yl}amino)-1,7-naphthyridine-3-carbonitrile] returned an IC50 against BACE-1 of 52 nM. In addition, the figures for the Ki in experiment [1], in experiment [2] and in experiment [3] were 0.0069 µM, 0.015 µM and 159 nM, respectively.
Consider `CC#CCOc1cnc2c(Nc3cnc(F)c([C@]4(C)CS(=O)(=O)[C@@](C)(C5CC5)C(N)=N4)c3)nccc2n1` [Example 29, (3R,6S)-5-amino-3-(5-((2-(but-2-yn-1-yloxy)pyrido[3,4-b]pyrazin-5-yl)amino)-2-fluoropyridin-3-yl)-6-cyclopropyl-3,6-dimethyl-3,6-dihydro-2H-1,4-thiazine 1,1-dioxide], for which the IC50 on BACE-1 turned out to be 30 nM.
Regarding `COc1ccccc1Nc1ccc(F)c([C@]2(C)CS(=O)(=O)C(C)(C)C(=N)N2)n1` [WO′426 Ex. 30a, reference compound], the Ki in experiment [1] was 0.517 µM; in experiment [2], 5.28 µM.
With `COc1cnc2c(Nc3ccc(F)c([C@]4(C)CS(=O)(=O)[C@@](C)(C5CC5)C(N)=N4)c3)ccnc2n1` [Example 37, (3R,6S)-5-amino-6-cyclopropyl-3-(2-fluoro-5-((3-methoxypyrido[2,3-b]pyrazin-8-yl)amino)phenyl)-3,6-dimethyl-3,6-dihydro-2H-1,4-thiazine 1,1-dioxide], on BACE-1, the IC50 amounted to 23 nM.
In the case of `CC1(C)C(=N)N[C@](C)(c2nc(Nc3cccc(Cl)c3F)ccc2F)CS1(=O)=O` [WO′426 Ex. 30, reference compound], the Ki is 0.862 µM in experiment [1] and 3.2 µM in experiment [2].
Turning to `COc1cnc2c(Nc3cc([C@]4(C)CS(=O)(=O)[C@@](C)(C5CC5)C(N)=N4)c(F)cn3)ncnc2n1` [Example 23, (2S,5R)-2-cyclopropyl-5-(5-fluoro-2-((7-methoxypteridin-4-yl)amino)pyridin-4-yl)-3-imino-2,5-dimethylthiomorpholine 1,1-dioxide], the inhibition constant (Ki) was 0.129 µM in experiment [1], 0.271 µM in experiment [2] and > 9400 nM in experiment [3].
Turning to `COc1cnc2c(Nc3cc([C@]4(C)CS(=O)(=O)[C@@](C)(C5CC5)C(N)=N4)c(F)cn3)ccnc2c1` [Example 21, (2S,5R)-2-cyclopropyl-5-(5-fluoro-2-((7-methoxy-1,5-naphthyridin-4-yl)amino)pyridin-4-yl)-3-imino-2,5-dimethylthiomorpholine 1,1-dioxide], the values for the Ki in experiment [1] and in experiment [2] were 0.0019 µM and 0.0053 µM, respectively.
Compound `C[C@@]1(c2cc(Nc3ncnc4cc(C#N)cnc34)ncc2F)CS(=O)(=O)[C@@](C)(C2CC2)C(N)=N1` [Example 39, 4-((4-((3R,6S)-5-amino-6-cyclopropyl-3,6-dimethyl-1,1-dioxido-3,6-dihydro-2H-1,4-thiazin-3-yl)-5-fluoropyridin-2-yl)amino)pyrido[3,2-d]pyrimidine-7-carbonitrile] displayed an IC50 at BACE-1 of 130 nM.
For `CC#CCOc1cnc2c(Nc3cnc(F)c([C@]4(C)CS(=O)(=O)[C@@](C)(C5CC5)C(N)=N4)c3)nccc2c1` [Example 30, (3R,6S)-5-amino-3-(5-((3-(but-2-yn-1-yloxy)-1,7-naphthyridin-8-yl)amino)-2-fluoropyridin-3-yl)-6-cyclopropyl-3,6-dimethyl-3,6-dihydro-2H-1,4-thiazine 1,1-dioxide], inhibition against BACE-1 was half-maximal at 28 nM (IC50).
On the same count and under the same terms, next, `C[C@@]1(c2cc(Nc3ccnc4cc(F)cnc34)ncc2F)CS(=O)(=O)[C@@](C)(C2CC2)C(N)=N1` [Example 34, (3R,6S)-5-amino-6-cyclopropyl-3-(5-fluoro-2-((7-fluoro-1,5-naphthyridin-4-yl)amino)pyridin-4-yl)-3,6-dimethyl-3,6-dihydro-2H-1,4-thiazine 1,1-dioxide]: 32 nM; `CC#CCOc1cnc2c(Nc3cc([C@]4(C)CS(=O)(=O)[C@@](C)(C5CC5)C(N)=N4)c(F)cn3)nccc2n1` [Example 28, (3R,6S)-5-amino-3-(2-((2-(but-2-yn-1-yloxy)pyrido[3,4-b]pyrazin-5-yl)amino)-5-fluoropyridin-4-yl)-6-cyclopropyl-3,6-dimethyl-3,6-dihydro-2H-1,4-thiazine 1,1-dioxide]: 6.3 nM.
